In patent US20260202414A1, “PROTEIN COMPLEXES FOR PROXIMITY-BASED LABELING OF INTRACELLULAR MICROENVIRONMENTS” (THE TRUSTEES OF PRINCETON UNIVERSITY, priority 2022, published 2026):

Test system: cereblon (CRBN)
Assay: Proximity labeling study with CRBN-bound iridium complex and diazo-biotin (FIG. 3/4)
Assay type: cell-based
Settings: transfected cells expressing CRBN with BCNK, tetrazine iridium complex bound to CRBN, diazo-biotin, irradiation; in the presence of CC-885 (without CC-885 only CRBN is enriched)
Text: Alternatively, the transition metal complex can be bonded to a derivatized amino acid or unnatural amino acid of the protein substrate or E3 ligase. Suitable click chemistry moieties of the transition metal complex and/or unnatural amino acid can be selected from the group consisting of DBCO, BCN, TCO, tetrazine, alkyne and azide. FIG. 3 illustrates validation of such a binding strategy with cereblon (CRBN). Transfected cells were employed to express CRBN with BCNK. Iridium complex comprising a tetrazine moiety was introduced to bind the iridium complex to CRBN. CRBN modulator CC-885 was added to bind to CRBN, and diazo-biotin was added as a protein labeling agent. The iridium complex was irradiated to form a reactive intermediate through energy transfer to the diazo-biotin as described further herein. The reactive intermediate binding to biomolecular species within a predetermined radius of the CRBN-Ir. FIG. 4 illustrates the results of the labeling study. […] In the absence of CC-885, only CRBN is enriched.

`Cc1ccc(NC(=O)NCc2ccc3c(c2)CN(C2CCC(=O)NC2=O)C3=O)cc1Cl` (stereo not shown) [CC-885] was tested, and the “proteins enriched in the labeling study” value was “CRBN and GSPT1 are enriched”.
